Measurements reported in patent publication US20090203753A1, “7-(2-amino-1-hydroxy-ethyl)-4-hydroxybenzothiazol-2(3H)-one-derivatives as beta2 adrenoreceptor agonists” (AstraZeneca AB, priority 2005, published 2009).

How the values were obtained:
[1] = target: T1, recombinant human α1D receptor (Homo sapiens, UniProt P25100); experiment: Adrenergic α1D selectivity assay, [3H]-prazosin binding to HEK293 membranes; conditions: read-out: α1 bind pIC50 (converted)
T1 construct: expressed in transfected cells; host or cells: HEK293
T1 sequence (P25100 1-572): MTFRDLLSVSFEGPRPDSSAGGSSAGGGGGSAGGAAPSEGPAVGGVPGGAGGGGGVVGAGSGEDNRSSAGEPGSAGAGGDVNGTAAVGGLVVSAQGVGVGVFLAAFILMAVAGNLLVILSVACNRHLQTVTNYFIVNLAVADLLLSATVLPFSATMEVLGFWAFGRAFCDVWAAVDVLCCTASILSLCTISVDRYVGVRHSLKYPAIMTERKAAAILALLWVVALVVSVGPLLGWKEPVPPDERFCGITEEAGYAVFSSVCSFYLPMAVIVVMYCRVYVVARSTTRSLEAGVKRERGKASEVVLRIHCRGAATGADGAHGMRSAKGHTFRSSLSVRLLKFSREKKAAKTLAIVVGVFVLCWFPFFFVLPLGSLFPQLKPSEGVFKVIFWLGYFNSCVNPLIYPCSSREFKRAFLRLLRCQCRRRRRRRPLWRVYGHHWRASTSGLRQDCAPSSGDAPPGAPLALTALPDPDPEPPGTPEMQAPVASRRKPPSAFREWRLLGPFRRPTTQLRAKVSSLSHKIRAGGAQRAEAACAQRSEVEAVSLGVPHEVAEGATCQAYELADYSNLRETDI
Method: Membranes were prepared from human embryonic kidney 293 (HEK293) cells expressing recombinant human α1D receptor. These were diluted in Assay Buffer (50 mM HEPES, 1 mM EDTA, 0.1% gelatin, pH 7.4) to provide a final concentration of membranes that gave a clear window between maximum and minimum specific binding.
Assays were performed in U-bottomed 96-well polypropylene plates. 10 μL [^3H]-prazosin (0.3 nM final concentration) and 10 μL of test compound (10× final concentration) were added to each test well. For each assay plate 8 replicates were obtained for [^3H]-prazosin binding in the presence of 10 μL vehicle (10% (v/v) DMSO in Assay Buffer; defining maximum binding) or 10 μL BMY7378 (10 μM final concentration; defining non-specific binding (NSB)). Membranes were then added to achieve a final volume of 100 μL. The plates were incubated for 2 hours at room temperature and then filtered onto PEI coated GF/B filter plates, pre-soaked for 1 hour in Assay Buffer, using a 96-well plate Tomtec cell harvester. Five washes with 250 μL wash buffer (50 mM HEPES, 1 mM EDTA, pH 7.4) were performed at 4° C. to remove unbound radioactivity. The plates were dried then sealed from underneath using Packard plate sealers and MicroScint-O (50 μL) was added to each well. The plates were sealed (TopSeal A) and filter-bound radioactivity was measured with a scintillation counter (TopCount, Packard BioScience) using a 3-minute counting protocol.
Total specific binding (B0) was determined by subtracting the mean NSB from the mean maximum binding. NSB values were also subtracted from values from all other wells.

β2 receptor = target: T2, β2 receptor (Homo sapiens, UniProt P07550); experiment: Alternative adrenergic β2 mediated cAMP production in H292 cells (60 minutes with test compound); assay type: cell-based
T2 construct: endogenous in cells; host or cells: H292 cells
T2 sequence (P07550 whole entry): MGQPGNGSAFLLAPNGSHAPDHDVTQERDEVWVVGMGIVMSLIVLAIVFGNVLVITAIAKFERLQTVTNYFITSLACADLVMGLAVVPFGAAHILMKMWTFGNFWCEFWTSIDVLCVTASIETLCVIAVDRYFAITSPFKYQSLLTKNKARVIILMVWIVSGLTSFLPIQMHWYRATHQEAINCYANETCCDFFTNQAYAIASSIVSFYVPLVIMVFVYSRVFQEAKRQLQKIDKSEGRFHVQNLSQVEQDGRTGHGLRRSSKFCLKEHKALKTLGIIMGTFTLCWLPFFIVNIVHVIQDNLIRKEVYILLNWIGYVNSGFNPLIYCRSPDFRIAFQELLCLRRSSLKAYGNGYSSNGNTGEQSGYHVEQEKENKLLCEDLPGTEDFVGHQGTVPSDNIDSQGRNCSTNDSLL
Method: Alternative Adrenergic (β2 Mediated cAMP Production
H292 cells were grown in 225 cm2 flasks incubator at 37° C., 5% CO2 in RPMI medium containing, 10% (v/v) FBS (foetal bovine serum) and 2 mM L-glutamine.
Adherent H292 cells were removed from tissue culture flasks by treatment with Accutase™ cell detachment solution for 15 minutes. Flasks were incubated for 15 minutes in a humidified incubator at 37° C., 5% CO2. Detached cells were re-suspended in RPMI media (containing 10% (v/v) FBS and 2 mM L-glutamine) at 0.05×10^6 cells per mL. 5000 cells in 100 μL were added to each well of a tissue-culture-treated 96-well plate and the cells incubated overnight in a humidified incubator at 37° C., 5% CO2. The culture media was removed and cells were washed twice with 100 μL assay buffer and replaced with 50 μL assay buffer (HBSS solution containing 10 mM HEPES pH7.4 and 5 mM glucose). Cells were rested at room temperature for 20 minutes after which time 25 μL of rolipram (1.2 mM made up in assay buffer containing 2.4% (v/v) dimethylsulphoxide) was added. Cells were incubated with rolipram for 10 minutes after which time test compounds were added and the cells were incubated for 60 minutes at room temperature. The final rolipram concentration in the assay was 300 μM and final vehicle concentration was 1.6% (v/v) dimethylsulphoxide. The reaction was stopped by removing supernatants, washing once with 100 μL assay buffer and replacing with 50 μL lysis buffer. The cell monolayer was frozen at −80° C. for 30 minutes (or overnight).
The concentration of cAMP (cyclic adenosine monophosphate) in the cell lysate was determined using AlphaScreen™ methodology. The frozen cell plate was thawed for 20 minutes on a plate shaker then 10 μL of the cell lysate was transferred to a 96-well white plate. 40 μL of mixed AlphaScreen™ detection beads pre-incubated with biotinylated cAMP, was added to each well and the plate incubated at room temperature for 10 hours in the dark. The AlphaScreen™ signal was measured using an EnVision spectrophotometer (Perkin-Elmer Inc.) with the recommended manufacturer's settings. cAMP concentrations were determined by reference to a calibration curve determined in the same experiment using standard cAMP concentrations. Concentration response curves for agonists were constructed and data was fitted to a four parameter logistic equation to determine both the pEC50 and Intrinsic Activity. […]

IC50 [1]: 5.01 µM
EC50 (β2 receptor; cAMP, 60 minutes incubation with compound, 300 μM rolipram, read-out: β2 pEC50 (converted)): 0.00398 µM
β2 Int Act (β2 receptor; fraction relative to the maximum activity determined for formoterol, 60 minutes incubation): 1
Compound: CCN(CC)CCN(CCNC[C@H](O)c1ccc(O)c2[nH]c(=O)sc12)C(=O)CCOCCc1ccccc1 [Example 7, N-[2-(Diethylamino)ethyl]-N-(2-{[(2R)-2-hydroxy-2-(4-hydroxy-2-oxo-2,3-dihydro-1,3-benzothiazol-7-yl)ethyl]amino}ethyl)-3-(2-phenylethoxy)propanamide]
